The target of test [1] is T1, ALK (Homo sapiens, UniProt Q9UM73).
T1 construct: host or cells: baculovirus expression system
Kind of test: ALK Kinase Assay (ELISA/TRF, PLC-γ substrate). Type of test: biochemical. The settings on record: read-out: ALK Potency. The procedure, abridged: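 Time-resolved fluorescence ELISA using Eu-N1 PT66 antibody to detect phosphorylated PLC-γ (coated at 10 μg/mL). Enzyme at 30 ng/ml ALK; 15 min incubation, 37° C.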

Test [2] addresses T2, JAK2 (Homo sapiens, UniProt O60674).
T2 construct: host or cells: baculovirus expression system
The experiment in a line: Recombinant Human JAK2 Kinase Assay (TRF). The settings on record: read-out: JAK2 Potency. Type of test: biochemical. As for the experimental part: Compounds were tested for their ability to inhibit the kinase activity of baculovirus-expressed JAK2 using the TRF detection system. […] The plates were coated first with 100 μL/well of 10 μg/mL Neutravidin (Pierce #31000, Rockford, Ill.) in TBS at 37° C. for 2 hours, followed by 100 μL/well of 1 μg/mL 15-mer peptide substrate (biotinyl-amino-hexanoyl-[…]-amide, Infinity Biotech Research and Resource, Aston, Pa.) at 37° C. for another hour. The JAK2 assay mixture (total volume=100 μL/well) consisting of 20 mM HEPES (pH 7.2), 0.2 μM ATP, 1 mM MnCl2, 0.1% BSA, and test compound (diluted in DMSO; 2.5% DMSO final in assay) was then added to the assay plate. Enzyme (15 ng/ml JAK2) was added and the reaction was allowed to proceed at room temperature for 20 minutes. Detection of the phosphorylated product was performed by adding 100 μL/well of Eu—N1 labeled PY100 antibody (PerkinElmer Life Sciences #AD0041, Boston, Mass.).

The mark [3] stands for this setting: ALK kinase inhibition, 1 μM ATP.
[4] abbreviates: JAK2 kinase inhibition, 0.2 μM ATP.

The values that follow come from patent US8471005B2 (Cephalon, Inc., priority 2008, dated 2013).

Like-named read-outs stand apart in the source and are kept apart here.

T1 sequence (Q9UM73 19-1620): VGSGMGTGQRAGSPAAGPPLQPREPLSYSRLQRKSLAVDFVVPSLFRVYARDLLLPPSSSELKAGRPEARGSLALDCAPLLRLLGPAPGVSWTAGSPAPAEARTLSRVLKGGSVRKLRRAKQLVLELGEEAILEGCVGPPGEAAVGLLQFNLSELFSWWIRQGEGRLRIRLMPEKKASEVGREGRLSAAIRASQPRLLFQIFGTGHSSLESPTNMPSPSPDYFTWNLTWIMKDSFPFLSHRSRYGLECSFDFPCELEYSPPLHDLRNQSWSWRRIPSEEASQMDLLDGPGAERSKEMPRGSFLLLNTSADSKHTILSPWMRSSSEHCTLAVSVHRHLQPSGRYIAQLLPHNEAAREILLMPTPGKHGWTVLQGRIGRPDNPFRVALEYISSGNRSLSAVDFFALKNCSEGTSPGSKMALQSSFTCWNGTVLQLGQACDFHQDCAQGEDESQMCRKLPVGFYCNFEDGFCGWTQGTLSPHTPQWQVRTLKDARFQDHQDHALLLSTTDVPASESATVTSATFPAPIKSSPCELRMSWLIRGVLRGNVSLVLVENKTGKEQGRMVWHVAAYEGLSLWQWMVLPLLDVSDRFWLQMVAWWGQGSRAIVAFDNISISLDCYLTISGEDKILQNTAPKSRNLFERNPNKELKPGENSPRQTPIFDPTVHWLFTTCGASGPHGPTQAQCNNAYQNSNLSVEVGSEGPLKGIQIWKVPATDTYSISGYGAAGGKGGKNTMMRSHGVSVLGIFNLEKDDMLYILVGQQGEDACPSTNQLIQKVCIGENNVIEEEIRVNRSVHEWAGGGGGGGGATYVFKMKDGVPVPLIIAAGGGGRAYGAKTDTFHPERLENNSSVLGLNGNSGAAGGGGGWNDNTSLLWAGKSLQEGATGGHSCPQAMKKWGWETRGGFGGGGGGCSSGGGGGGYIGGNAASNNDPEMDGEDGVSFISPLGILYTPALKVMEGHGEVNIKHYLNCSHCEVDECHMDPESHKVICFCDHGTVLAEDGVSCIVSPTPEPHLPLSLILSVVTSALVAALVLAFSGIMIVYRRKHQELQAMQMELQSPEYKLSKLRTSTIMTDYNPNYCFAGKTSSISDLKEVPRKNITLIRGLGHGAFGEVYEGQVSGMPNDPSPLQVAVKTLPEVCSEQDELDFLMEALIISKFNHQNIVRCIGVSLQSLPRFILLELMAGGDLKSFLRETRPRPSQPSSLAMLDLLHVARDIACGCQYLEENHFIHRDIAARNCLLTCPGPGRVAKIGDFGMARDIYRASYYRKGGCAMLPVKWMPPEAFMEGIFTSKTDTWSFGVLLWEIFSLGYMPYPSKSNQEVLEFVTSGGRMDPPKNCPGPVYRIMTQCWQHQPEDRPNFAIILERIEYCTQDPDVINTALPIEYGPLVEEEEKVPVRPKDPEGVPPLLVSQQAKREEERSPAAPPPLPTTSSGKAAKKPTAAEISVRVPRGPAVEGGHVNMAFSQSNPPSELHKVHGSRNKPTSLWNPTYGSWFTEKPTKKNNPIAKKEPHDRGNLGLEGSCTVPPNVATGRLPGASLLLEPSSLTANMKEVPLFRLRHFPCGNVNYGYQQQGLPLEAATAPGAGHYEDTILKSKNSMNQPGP
T2 sequence (O60674 whole entry): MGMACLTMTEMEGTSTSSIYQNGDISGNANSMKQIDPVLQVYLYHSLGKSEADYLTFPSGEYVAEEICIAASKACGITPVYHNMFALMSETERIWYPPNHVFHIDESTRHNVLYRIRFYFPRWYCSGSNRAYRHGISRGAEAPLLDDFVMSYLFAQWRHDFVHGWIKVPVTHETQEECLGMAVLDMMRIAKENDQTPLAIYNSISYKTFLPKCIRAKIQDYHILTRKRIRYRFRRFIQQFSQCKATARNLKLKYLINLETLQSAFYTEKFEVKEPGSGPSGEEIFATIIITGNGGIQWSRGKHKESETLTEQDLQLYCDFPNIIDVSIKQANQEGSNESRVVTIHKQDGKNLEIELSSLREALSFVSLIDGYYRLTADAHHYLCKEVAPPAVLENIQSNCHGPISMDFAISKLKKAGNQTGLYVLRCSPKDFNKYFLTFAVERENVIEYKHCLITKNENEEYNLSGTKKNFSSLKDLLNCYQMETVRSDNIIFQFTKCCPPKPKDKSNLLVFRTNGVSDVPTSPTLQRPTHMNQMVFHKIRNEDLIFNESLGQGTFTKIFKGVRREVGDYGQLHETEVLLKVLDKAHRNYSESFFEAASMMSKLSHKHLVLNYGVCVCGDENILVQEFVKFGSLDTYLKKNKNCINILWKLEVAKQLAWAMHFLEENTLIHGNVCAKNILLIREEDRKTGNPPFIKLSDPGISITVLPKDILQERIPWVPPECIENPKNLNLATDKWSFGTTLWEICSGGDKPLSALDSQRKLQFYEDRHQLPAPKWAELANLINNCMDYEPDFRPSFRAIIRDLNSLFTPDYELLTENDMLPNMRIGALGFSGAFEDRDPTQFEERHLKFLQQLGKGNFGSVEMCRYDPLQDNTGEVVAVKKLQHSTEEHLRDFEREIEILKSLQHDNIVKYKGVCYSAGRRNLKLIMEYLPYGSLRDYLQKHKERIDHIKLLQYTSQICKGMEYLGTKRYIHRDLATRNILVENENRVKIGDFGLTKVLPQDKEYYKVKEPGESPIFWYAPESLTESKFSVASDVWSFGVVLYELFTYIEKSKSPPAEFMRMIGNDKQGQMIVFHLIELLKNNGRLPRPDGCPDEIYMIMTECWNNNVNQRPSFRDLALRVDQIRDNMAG

Consider `COc1cc(C2CCN(C(=O)C3CCN3)CC2)ccc1Nc1ncc2ccc(-c3ccccc3OC)n2n1` (racemic) [Example 862, (±)-Azetidin-2-yl-(4-{3-methoxy-4-[7-(2-methoxy-phenyl)-pyrrolo[2,1-f][1,2,4]triazin-2-ylamino]-phenyl}-piperidin-1-yl)-methanone], for which the IC50 was less than 100 nM in test [1] (setting [3]) and 100 to 1000 nM in test [2] (setting [4]).

Regarding `COc1cc(C2CCN(C(=O)C3CCN3)CC2)ccc1Nc1ncc2ccc(-c3ccccc3N(C)S(C)(=O)=O)n2n1` (racemic) [Example 863, (±)-N-[2-(2-{4-[1-(Azetidine-2-carbonyl)-piperidin-4-yl]-2-methoxy-phenylamino}-pyrrolo[2,1-f][1,2,4]triazin-7-yl)-phenyl]-N-methyl-methanesulfonamide], the results for the IC50 in test [1] (setting [3]) and in test [2] (setting [4]) were less than 100 nM and 1000 to 10000 nM, respectively.

On to `COc1cc(C2CCN(CC3CCN3C)CC2)ccc1Nc1ncc2ccc(-c3ccccc3N(C)S(C)(=O)=O)n2n1` (racemic) [Example 871, (±)-N-[2-(2-{2-Methoxy-4-[1-(1-methyl-azetidin-2-ylmethyl)-piperidin-4-yl]-phenylamino}-pyrrolo[2,1-f][1,2,4]triazin-7-yl)-phenyl]-N-methyl-methanesulfonamide], for which the results for the IC50 in test [1] (setting [3]) and in test [2] (setting [4]) were less than 100 nM and 1000 to 10000 nM, respectively.

`COc1cc(N2CCCC(N3CCN(C)CC3)C2)ccc1Nc1ncc2ccc(-c3ccccc3OC)n2n1` (single isomer, unassigned) [Example 1441, {2-Methoxy-4-[3-(4-methyl-piperazin-1-yl)-piperidin-1-yl]-phenyl}-[7-(2-methoxy-phenyl)-pyrrolo[2,1-f][1,2,4]triazin-2-yl]-amine]: the IC50 in test [1] (ALK Kinase Inhibition) and in test [2] (JAK2 Kinase Inhibition) was less than 100 nM throughout.

On to `COc1cc(N2CCCC(N3CCN(C)CC3)C2)ccc1Nc1ncc2ccc(-c3ccccc3OC)n2n1` (single isomer, unassigned) [Example 1442, {2-Methoxy-4-[3-(4-methyl-piperazin-1-yl)-piperidin-1-yl]-phenyl}-[7-(2-methoxy-phenyl)-pyrrolo[2,1-f][1,2,4]triazin-2-yl]-amine], for which the results for the IC50 in test [1] (ALK Kinase Inhibition) and in test [2] (JAK2 Kinase Inhibition) were less than 100 nM and 100 to 1000 nM, respectively.

On to `Clc1cccc(-c2ccc3cnc(Nc4ccc(N5CCOCC5)cc4)nn23)c1` [Example 1, [7-(3-Chloro-phenyl)-pyrrolo[2,1-f][1,2,4]triazin-2-yl]-(4-morpholin-4-yl-phenyl)-amine], for which the IC50 in test [1] (ALK Kinase Inhibition) is greater than 10000 nM; in test [2] (JAK2 Kinase Inhibition) it was less than 100 nM.

For the molecule `c1ccc(-c2ccc3cnc(Nc4ccc(N5CCOCC5)cc4)nn23)cc1` [Example 2, (4-Morpholin-4-yl-phenyl)-(7-phenyl-pyrrolo[2,1-f][1,2,4]triazin-2-yl)amine], the IC50 is 100 to 1000 nM in test [1] (ALK Kinase Inhibition) and less than 100 nM in test [2] (JAK2 Kinase Inhibition).

Regarding `COc1ccc(Cl)cc1-c1ccc2cnc(Nc3ccc(N4CCOCC4)cc3)nn12` [Example 3, [7-(5-Chloro-2-methoxy-phenyl)-pyrrolo[2,1-f][1,2,4]triazin-2-yl]-(4-morpholin-4-yl-phenyl)-amine], the IC50 in test [1] (ALK Kinase Inhibition) was 100 to 1000 nM; in test [2] (JAK2 Kinase Inhibition), less than 100 nM.

On to `c1cc(-c2ccc3cnc(Nc4ccc(N5CCOCC5)cc4)nn23)ccn1` [Example 4, (4-Morpholin-4-yl-phenyl)-(7-pyridin-4-yl-pyrrolo[2,1-f][1,2,4]triazin-2-yl)-amine], for which the IC50 in test [1] (ALK Kinase Inhibition) is 1000 to 10000 nM; in test [2] (JAK2 Kinase Inhibition), less than 100 nM.

Take `c1cc(N2CCOCC2)ccc1Nc1ncc2ccc(-c3ccc4c(c3)OCCO4)n2n1` [Example 5, [7-(2,3-Dihydro-benzo[1,4]dioxin-6-yl)-pyrrolo[2,1-f][1,2,4]triazin-2-yl]-(4-morpholin-4-yl-phenyl)-amine]: the IC50 in test [1] (ALK Kinase Inhibition) was 1000 to 10000 nM; in test [2] (JAK2 Kinase Inhibition) it was less than 100 nM.

For `COC(=O)c1cccc(-c2ccc3cnc(Nc4ccc(N5CCOCC5)cc4)nn23)c1` [Example 6, 3-[2-(4-Morpholin-4-yl-phenylamino)-pyrrolo[2,1-f][1,2,4]triazin-7-yl]-benzoic acid methyl ester], the IC50 was greater than 10000 nM in test [1] (ALK Kinase Inhibition) and less than 100 nM in test [2] (JAK2 Kinase Inhibition).

As for `CN1CCN(c2ccc(Nc3ncc4ccc(-c5ccccc5)n4n3)cc2)CC1` [Example 7, [4-(4-Methyl-piperazin-1-yl)-phenyl]-(7-phenyl-pyrrolo[2,1-f][1,2,4]triazin-2-yl)-amine], the IC50 in test [1] (ALK Kinase Inhibition) and in test [2] (JAK2 Kinase Inhibition) was less than 100 nM each time.

Take `CN1CCN(c2ccc(Nc3ncc4ccc(-c5ccc6c(c5)OCCO6)n4n3)cc2)CC1` [Example 8, [7-(2,3-Dihydro-benzo[1,4]dioxin-6-yl)-pyrrolo[2,1-f][1,2,4]triazin-2-yl]-[4-(4-methyl-piperazin-1-yl)-phenyl]-amine]: the IC50 in test [1] (ALK Kinase Inhibition) and in test [2] (JAK2 Kinase Inhibition) was less than 100 nM each time.

With `COCCN1CCc2ccc(Nc3ncc4ccc(-c5ccccc5)n4n3)cc2CC1` [Example 9, [3-(2-Methoxy-ethyl)-2,3,4,5-tetrahydro-1H-benzo[d]azepin-7-yl]-(7-phenyl-pyrrolo[2,1-f][1,2,4]triazin-2-yl)-amine], the IC50 in test [1] (ALK Kinase Inhibition) and in test [2] (JAK2 Kinase Inhibition) was less than 100 nM throughout.

Regarding `Cn1cc(-c2ccc3cnc(Nc4ccc(N5CCOCC5)cc4)nn23)cn1` [Example 10, [7-(1-Methyl-1H-pyrazol-4-yl)-pyrrolo[2,1-f][1,2,4]triazin-2-yl]-(4-morpholin-4-yl-phenyl)-amine], the IC50 is 1000 to 10000 nM in test [1] (ALK Kinase Inhibition) and less than 100 nM in test [2] (JAK2 Kinase Inhibition).

On to `c1cncc(-c2ccc3cnc(Nc4ccc(N5CCOCC5)cc4)nn23)c1` [Example 11, (4-Morpholin-4-yl-phenyl)-(7-pyridin-3-yl-pyrrolo[2,1-f][1,2,4]triazin-2-yl)-amine], for which the results for the IC50 in test [1] (ALK Kinase Inhibition) and in test [2] (JAK2 Kinase Inhibition) were 1000 to 10000 nM and less than 100 nM, respectively.

Take `c1ccc(-c2ccc3cnc(NCc4cccnc4)nn23)cc1` [Example 12, (7-Phenyl-pyrrolo[2,1-f][1,2,4]triazin-2-yl)-pyridin-3-ylmethyl-amine]: the IC50 in test [1] (ALK Kinase Inhibition) and in test [2] (JAK2 Kinase Inhibition) was 1000 to 10000 nM each time.

Regarding `COc1cc(Nc2ncc3ccc(-c4ccccc4)n3n2)cc(OC)c1OC` [Example 13, (7-Phenyl-pyrrolo[2,1-f][1,2,4]triazin-2-yl)-(3,4,5-trimethoxy-phenyl)amine], the IC50 in test [1] (ALK Kinase Inhibition) is 100 to 1000 nM; in test [2] (JAK2 Kinase Inhibition) it was less than 100 nM.

On to `O=C(c1ccc(-c2ccc3cnc(Nc4ccc(N5CCOCC5)cc4)nn23)cc1)N1CCOCC1` [Example 14, Morpholin-4-yl-{4-[2-(4-morpholin-4-yl-phenylamino)-pyrrolo[2,1-f][1,2,4]triazin-7-yl]-phenyl}-methanone], for which the IC50 is 100 to 1000 nM in test [1] (ALK Kinase Inhibition) and less than 100 nM in test [2] (JAK2 Kinase Inhibition).

`O=C(c1cccc(-c2ccc3cnc(Nc4ccc(N5CCOCC5)cc4)nn23)c1)N1CCCC1` [Example 15, {3-[2-(4-Morpholin-4-yl-phenylamino)-pyrrolo[2,1-f][1,2,4]triazin-7-yl]-phenyl}-pyrrolidin-1-yl-methanone]: the IC50 in test [1] (ALK Kinase Inhibition) is 100 to 1000 nM; in test [2] (JAK2 Kinase Inhibition), less than 100 nM.

For `COc1ncccc1-c1ccc2cnc(Nc3ccc(N4CCOCC4)cc3)nn12` [Example 16, [7-(2-Methoxy-pyridin-3-yl)-pyrrolo[2,1-f][1,2,4]triazin-2-yl]-(4-morpholin-4-yl-phenyl)-amine], the IC50 in test [1] (ALK Kinase Inhibition) is 100 to 1000 nM; in test [2] (JAK2 Kinase Inhibition), less than 100 nM.

Take `COc1ccc(Cl)cc1-c1ccc2cnc(Nc3ccc(N4CCN(C)CC4)cc3)nn12` [Example 17, [7-(5-Chloro-2-methoxy-phenyl)-pyrrolo[2,1-f][1,2,4]triazin-2-yl]-[4-(4-methyl-piperazin-1-yl)-phenyl]-amine]: the IC50 in test [1] (ALK Kinase Inhibition) and in test [2] (JAK2 Kinase Inhibition) was less than 100 nM each time.

Consider `CN1CCN(c2ccc(Nc3ncc4ccc(-c5cnn(C)c5)n4n3)cc2)CC1` [Example 18, [4-(4-Methyl-piperazin-1-yl)-phenyl]-[7-(1-methyl-1H-pyrazol-4-yl)-pyrrolo[2,1-f][1,2,4]triazin-2-yl]-amine], for which the IC50 in test [1] (ALK Kinase Inhibition) was 100 to 1000 nM; in test [2] (JAK2 Kinase Inhibition), less than 100 nM.

Consider `CN1CCN(c2ccc(Nc3ncc4ccc(-c5ccc(C(=O)N6CCOCC6)cc5)n4n3)cc2)CC1` [Example 19, (4-{2-[4-(4-Methyl-piperazin-1-yl)-phenylamino]-pyrrolo[2,1-f][1,2,4]triazin-7-yl}-phenyl)-morpholin-4-yl-methanone], for which the figures for the IC50 in test [1] (ALK Kinase Inhibition) and in test [2] (JAK2 Kinase Inhibition) were 100 to 1000 nM and less than 100 nM, respectively.

Consider `CN1CCN(c2ccc(Nc3ncc4ccc(-c5cccc(C(=O)N6CCCC6)c5)n4n3)cc2)CC1` [Example 21, (3-{2-[4-(4-Methyl-piperazin-1-yl)-phenylamino]-pyrrolo[2,1-f][1,2,4]triazin-7-yl}-phenyl)-pyrrolidin-1-yl-methanone], for which the figures for the IC50 in test [1] (ALK Kinase Inhibition) and in test [2] (JAK2 Kinase Inhibition) were 100 to 1000 nM and less than 100 nM, respectively.

Take `COc1ncccc1-c1ccc2cnc(Nc3ccc(N4CCN(C)CC4)cc3)nn12` [Example 22, [7-(2-Methoxy-pyridin-3-yl)-pyrrolo[2,1-f][1,2,4]triazin-2-yl]-[4-(4-methyl-piperazin-1-yl)-phenyl]-amine]: the IC50 in test [1] (ALK Kinase Inhibition) and in test [2] (JAK2 Kinase Inhibition) was less than 100 nM throughout.

As for `CN1CCN(c2ccc(Nc3ncc4ccc(Nc5ccccc5)n4n3)cc2)CC1` [Example 24, N(2)-[4-(4-Methyl-piperazin-1-yl)-phenyl]-N(7)-phenyl-pyrrolo[2,1-f][1,2,4]triazine-2,7-diamine], the values for the IC50 in test [1] (ALK Kinase Inhibition) and in test [2] (JAK2 Kinase Inhibition) were 1000 to 10000 nM and less than 100 nM, respectively.
